Experimental data reported in PMC10999543, “Identification of kinase modulators as host-directed therapeutics against intracellular methicillin-resistant Staphylococcus aureus” (Frontiers in Cellular and Infection Microbiology, 2024).
Read-outs that look alike come from different tables or passages of the source.

Tests used:
[1] = system: intracellular MRSA; assay type: cell-based, Staphylococcus aureus; settings: for z-scoreMRSA+ mean: mean of 3 replicates; for z-scoreMRSA+ rep 1 / %GFP+ rep 1: replicate 1; for z-scoreMRSA+ rep 2 / %GFP+ rep 2: replicate 2; for z-scoreMRSA+ rep 3 / %GFP+ rep 3: replicate 3
Summary of the method: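 HeLa cells were infected with GFP-expressing MRSA (mean MOI 6.8) for 1 h, treated with 30 µg/ml gentamicin for 15 min, then incubated overnight at 37°C with kinase inhibitors and 5 µg/ml gentamicin. Flow cytometry gave % GFP-positive cells, with cell count as viability. Hits were z-score ≤ -2 (infection) and ≥ -3 (count) versus DMSO.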

[2] = system: HeLa cells; assay: Compound screen by flow cytometry: HeLa cell count as surrogate readout of cell viability (z-scoreHeLa); assay type: cell-based, human
Summary of the method: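 The viability surrogate was the count of fixed HeLa cells by flow cytometry, converted to z-scores against DMSO controls with values deviating two-fold excluded. Before counting, cells had been infected with MRSA for 1 h and cleared of extracellular bacteria with gentamicin. They were then exposed overnight to kinase inhibitors in triplicate.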

[3] = PKIS compound screen, Yes/No call
[4] = PKIS compound screen, Yes/No call (effect without cell death)
[5] = PKIS compounds raw data, MRSA-infected HeLa cells
[6] = PKIS compound screen, mean of 3 replicates
[7] = PKIS compound screen, replicate 1
[8] = PKIS compound screen, replicate 2
[9] = PKIS compound screen, replicate 3
[10] = PKIS compounds raw data, replicate 1, HeLa cell count
[11] = PKIS compounds raw data, replicate 2, HeLa cell count
[12] = PKIS compounds raw data, replicate 3, HeLa cell count
[13] = PKIS compound screen raw data, MRSA-infected HeLa cells
[14] = PKIS compound screen, MRSA-infected HeLa cells
[15] = PKIS compound screen, Yes/No call on z-scoreMRSA+
[16] = PKIS compound screen raw data, HeLa cell count, replicate 1
[17] = PKIS compound screen raw data, HeLa cell count, replicate 2
[18] = PKIS compound screen raw data, HeLa cell count, replicate 3
[19] = PKIS compound screen, HeLa cell count, mean of 3 replicates
[20] = PKIS compound screen, HeLa cell count, replicate 1
[21] = PKIS compound screen, HeLa cell count, replicate 2
[22] = PKIS compound screen, HeLa cell count, replicate 3
[23] = PKIS compound screen, Yes/No call on z-scoreHeLa
[24] = Yes/No: effect without cell death
[25] = compound screen, MRSA-infected HeLa cells
[26] = compound screen, HeLa cell count, mean of 3 replicates
[27] = compound screen, HeLa cell count, replicate 1
[28] = compound screen, HeLa cell count, replicate 2
[29] = compound screen, HeLa cell count, replicate 3

Structure (SMILES)	effect [1, 3]	hit [1, 4]	z-scoreMRSA+ mean ([1]; PKIS compound screen)	z-scoreMRSA+ rep 1 ([1]; PKIS compound screen)	z-scoreMRSA+ rep 2 ([1]; PKIS compound screen)	z-scoreMRSA+ rep 3 ([1]; PKIS compound screen)	%GFP+ rep 1 [1, 5]	%GFP+ rep 2 [1, 5]	%GFP+ rep 3 [1, 5]	cell death [2, 3]	z-scoreHeLa mean [2, 6]	z-scoreHeLa rep 1 [2, 7]	z-scoreHeLa rep 2 [2, 8]	z-scoreHeLa rep 3 [2, 9]	cell count rep 1 [2, 10]	cell count rep 2 [2, 11]	cell count rep 3 [2, 12]	%GFP+ rep 1 [1, 13]	%GFP+ rep 2 [1, 13]	%GFP+ rep 3 [1, 13]	other results
NS(=O)(=O)c1ccc(N/N=C2\C(=O)Nc3ccc(Cl)cc32)cc1 [GW280670X]	No	No	6.79	7.09	11.94	1.34	35.3%	49.2%	20.4%	No	0.17	-0.14	0.27	0.37	4621	4629	7741				
Cn1cncc1-c1cc2c(Nc3ccc(OCc4ccccc4)cc3)ncnc2cn1 [GW281179X]	No	No	-0.18	-0.25	0.13	-0.42	25.8%	26.7%	25.0%	No	-1.83	-2.06	-2.65	-0.79	2614	2008	4357	19.2%	17.8%	19.0%	z-scoreMRSA+ mean [1, 14]: -0.31; z-scoreMRSA+ rep 1 [1, 14]: 0.11; z-scoreMRSA+ rep 2 [1, 14]: -0.44; z-scoreMRSA+ rep 3 [1, 14]: -0.61; effect [1, 15]: No; cell count rep 1 [2, 16]: 28376; cell count rep 2 [2, 17]: 11001; cell count rep 3 [2, 18]: 11278; z-scoreHeLa mean [2, 19]: -1.41; z-scoreHeLa rep 1 [2, 20]: -0.31; z-scoreHeLa rep 2 [2, 21]: -2.45; z-scoreHeLa rep 3 [2, 22]: -1.49; cell death [2, 23]: No
Cc1cccc2c1NC(=O)C2=NNc1ccc(S(N)(=O)=O)cc1 [GW282536X]																		21.7%	20.9%	20.2%	effect ([1]; Yes/No call from z-scoreMRSA+): No; hit [1, 24]: No; z-scoreMRSA+ mean [1, 25]: -0.62; z-scoreMRSA+ rep 1 [1, 25]: -0.83; z-scoreMRSA+ rep 2 [1, 25]: -0.42; z-scoreMRSA+ rep 3 [1, 25]: -0.60; cell count rep 1 [2, 16]: 1823; cell count rep 2 [2, 17]: 2013; cell count rep 3 [2, 18]: 1046; cell death ([2]; Yes/No call from z-scoreHeLa): No; z-scoreHeLa mean [2, 26]: -2.08; z-scoreHeLa rep 1 [2, 27]: -1.82; z-scoreHeLa rep 2 [2, 28]: -1.76; z-scoreHeLa rep 3 [2, 29]: -2.65
CN(C)c1cc2c(Nc3ccc4c(cnn4Cc4ccccc4)c3)ncnc2cn1 [GW282974X]	No	No	-0.84	-0.54	-0.77	-1.21	11.5%	11.2%	11.8%	No	1.58	0.95	1.79	2.01	5822	6633	11155				
c1ccc(COc2ccc(Nc3ncnc4ccc(-c5ccco5)cc34)cc2)cc1 [GW284372X]	No	No	-0.74	-0.66	-0.47	-1.09	11.1%	12.1%	12.2%	No	0.48	-0.33	0.65	1.13	4410	5123	9333				
COc1cc2nccc(Nc3cccc(Oc4ccccc4)c3)c2cc1OC [GW284543A]		No																19.7%	21.7%	21.6%	z-scoreMRSA+ mean [1, 14]: 0.70; z-scoreMRSA+ rep 1 [1, 14]: 0.58; z-scoreMRSA+ rep 2 [1, 14]: 0.96; z-scoreMRSA+ rep 3 [1, 14]: 0.55; effect [1, 15]: No; cell count rep 1 [2, 16]: 34308; cell count rep 2 [2, 17]: 33464; cell count rep 3 [2, 18]: 39414; z-scoreHeLa mean [2, 19]: 0.58; z-scoreHeLa rep 1 [2, 20]: 2.15; z-scoreHeLa rep 2 [2, 21]: -0.25; z-scoreHeLa rep 3 [2, 22]: -0.18; cell death [2, 23]: No
NS(=O)(=O)c1ccc(N/C=C2\C(=O)Nc3ccc4ncsc4c32)cc1 [GW297361X]	No	No	0.46	0.87	1.17	-0.68	15.9%	17.0%	13.6%	No	-1.04	-1.65	-0.59	-0.88	2950	3493	5130				
CC(C)c1ccc2c(c1)NC(=O)C2=NNc1ccc(S(N)(=O)=O)cc1 [GW300653X]							12.5%	13.7%	13.3%						3693	3535	5783				effect ([1]; Yes/No call from z-scoreMRSA+): No; hit [1, 24]: No; z-scoreMRSA+ mean [1, 25]: -0.30; z-scoreMRSA+ rep 1 [1, 25]: -0.21; z-scoreMRSA+ rep 2 [1, 25]: 0.07; z-scoreMRSA+ rep 3 [1, 25]: -0.77; cell death ([2]; Yes/No call from z-scoreHeLa): No; z-scoreHeLa mean [2, 26]: -0.70; z-scoreHeLa rep 1 [2, 27]: -0.98; z-scoreHeLa rep 2 [2, 28]: -0.55; z-scoreHeLa rep 3 [2, 29]: -0.56
CN(C)c1cc2c(Nc3ccc4nc(Cc5ccccc5)[nH]c4c3)ncnc2cn1 [GW301888X]	No	No	0.0238	-0.0117	0.30	-0.22	27.0%	27.6%	26.1%	No	0.66	0.47	0.90	0.61	6836	7361	6557				
O=C1Nc2ccc(I)cc2C1=Cc1cc(Br)c(O)c(Br)c1 [GW305074X]																		19.6%	17.6%	21.1%	effect ([1]; Yes/No call from z-scoreMRSA+): No; hit [1, 24]: No; z-scoreMRSA+ mean [1, 25]: -0.96; z-scoreMRSA+ rep 1 [1, 25]: -1.32; z-scoreMRSA+ rep 2 [1, 25]: -1.22; z-scoreMRSA+ rep 3 [1, 25]: -0.33; cell death [2]: No; cell count rep 1 ([2]; human): 1595; cell count rep 2 ([2]; human): 1814; cell count rep 3 ([2]; human): 1196; z-scoreHeLa mean ([2]; human): -2.15; z-scoreHeLa rep 1 ([2]; human): -1.99; z-scoreHeLa rep 2 ([2]; human): -1.91; z-scoreHeLa rep 3 ([2]; human): -2.55
COC(=O)c1ccc2c(c1)C(=Cc1cc(Br)c(O)c(Br)c1)C(=O)N2 [GW405841X]	No	No	-0.17	0.00934	0.0349	-0.56	13.2%	13.6%	14.0%	No	1.55	0.63	2.17	1.84	5478	7140	10804				
O=C1Nc2ccc(C(=O)c3ccco3)cc2C1=Cc1cc(Cl)c(O)c(Cl)c1 [GW406108X]		No																19.1%	21.6%	22.3%	z-scoreMRSA+ mean [1, 14]: 0.69; z-scoreMRSA+ rep 1 [1, 14]: 0.39; z-scoreMRSA+ rep 2 [1, 14]: 0.93; z-scoreMRSA+ rep 3 [1, 14]: 0.76; effect [1, 15]: No; cell count rep 1 [2, 16]: 28408; cell count rep 2 [2, 17]: 39603; cell count rep 3 [2, 18]: 51964; z-scoreHeLa mean [2, 19]: 1.33; z-scoreHeLa rep 1 [2, 20]: 1.26; z-scoreHeLa rep 2 [2, 21]: 0.90; z-scoreHeLa rep 3 [2, 22]: 1.82; cell death [2, 23]: No
